Assays:
pigweed = assay: Test B pre-/postemergence herbicide test; assay type: in vivo, Amaranthus retroflexus; settings: for Plant response rating (0 to 100 scale), Pigweed: 0 is no effect, 100 is complete control, preemergence
Method in brief: (§1)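 Evaluation is visual, comparing treated with control plants on a scale where 0 means no effect and 100 means full control. Treatments were preemergence, or postemergence on seedlings 2–18 cm tall, and held 13–15 days in the greenhouse.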

cocklebur = assay: Test B pre-/postemergence herbicide test; assay type: in vivo, Xanthium strumarium; settings: for Plant response rating (0 to 100 scale), Cocklebur: 0 is no effect, 100 is complete control, preemergence
Method in brief: (§2)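 Test chemicals in a non-phytotoxic solvent mixture with surfactant were applied preemergence to seeded species and postemergence to plants 2-18 cm tall (1- to 4-leaf stage); rice and barnyardgrass were also tested in a flooded paddy at the 2-leaf stage. Visual rating versus controls after 13-15 days in greenhouse, scale 0 (no effect) to 100 (complete control).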

barnyardgrass [1] = assay: Test B flooded paddy test; assay type: in vivo, Echinochloa crus-galli; settings: 1000 g ai/ha, scale 0 to 100 (0 no effect, 100 complete control)
Method in brief: (§3)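 Paddy species grown to the 2-leaf stage under flooding; blackgrass sprayed postemergence at 2–18 cm (1- to 4-leaf stage). Plants kept in a greenhouse for 13 to 15 days, then visually rated against controls on 0 (no effect) to 100 (complete control).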

morningglory = assay: Test B pre-/postemergence herbicide test; assay type: in vivo, Ipomoea coccinea; settings: for Plant response rating (0 to 100 scale), Morningglory: 0 is no effect, 100 is complete control, preemergence
Method in brief: as §2

giant foxtail = assay: Test B pre-/postemergence herbicide test; assay type: in vivo, Setaria faberi; settings: for Plant response rating (0 to 100 scale), Foxtail, Giant: 0 is no effect, 100 is complete control, preemergence
Method in brief: as §1

rice = assay: Test B flooded paddy test; assay type: in vivo, Oryza sativa; settings: 1000 g ai/ha, scale 0 to 100 (0 no effect, 100 complete control)
Method in brief: (§4)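 Each value is a visual 0–100 response rating taken against controls 13 to 15 days after treatment in the greenhouse. Plants received formulated chemical postemergence at the 1- to 4-leaf stage or, in flooded paddy, at the 2-leaf stage.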

large crabgrass = assay: Test B pre-/postemergence herbicide test; assay type: in vivo, Digitaria sanguinalis; settings: for Plant response rating (0 to 100 scale), Crabgrass, Large: 0 is no effect, 100 is complete control, preemergence
Method in brief: as §1

barnyardgrass [2] = assay: Test B pre-/postemergence herbicide test; assay type: in vivo, Echinochloa crus-galli; settings: for Plant response rating (0 to 100 scale), Barnyardgrass: 0 is no effect, 100 is complete control, preemergence; for Barnyardgrass plant response rating: scale 0 (no effect) to 100 (complete control)
Method in brief: as §2

blackgrass = assay: Test B postemergence herbicide test; assay type: in vivo, Alopecurus myosuroides
Method in brief: as §3

wheat = assay: Test B postemergence herbicide test; assay type: in vivo, Triticum aestivum; parameters: key to Wheat plant response rating: 0 = no effect, 100 = complete control
Method in brief: as §4

lambsquarters = assay: Test B pre-/postemergence herbicide test; assay type: in vivo, Chenopodium album; settings: for Plant response rating (0 to 100 scale), Lambsquarters: 0 is no effect, 100 is complete control, preemergence
Method in brief: as §1

Surinam grass = assay: Test B pre-/postemergence herbicide test; assay type: in vivo, Urochloa decumbens; settings: for Plant response rating (0 to 100 scale), Surinam Grass: 0 is no effect, 100 is complete control, preemergence
Method in brief: as §1

[3] = tested on: small flower umbrella sedge; assay: Test B flooded paddy test; assay type: in vivo, Cyperus difformis; settings: 1000 g ai/ha, scale 0 to 100 (0 no effect, 100 complete control)
Method in brief: as §3

corn = assay: Test B pre-/postemergence herbicide test; assay type: in vivo, Zea mays; settings: for Plant response rating (0 to 100 scale), Corn: 0 is no effect, 100 is complete control, preemergence
Method in brief: as §1

ducksalad = assay: Test B flooded paddy test; assay type: in vivo, Heteranthera limosa; settings: 1000 g ai/ha, scale 0 to 100 (0 no effect, 100 complete control)
Method in brief: as §3

wild oat = assay: Test B postemergence herbicide test; assay type: in vivo, Avena fatua
Method in brief: as §4

velvetleaf = assay: Test B pre-/postemergence herbicide test; assay type: in vivo, Abutilon theophrasti; settings: for Plant response rating (0 to 100 scale), Velvetleaf: 0 is no effect, 100 is complete control, preemergence
Method in brief: as §1

[4] = Postemergence, 500 g ai/ha, scale 0 (no effect) to 100 (complete control)
[5] = postemergence, 125 g ai/ha, scale 0 to 100
[6] = 500 g ai/ha, scale 0 to 100, 0 no effect, 100 complete control, preemergence
[7] = 125 g ai/ha, visual rating, scale 0 (no effect) to 100 (complete control), postemergence

CCNC(=O)c1cncc(NC(=O)c2nn(C(C)(C)C)nc2C)c1 [Compound 427]
20: Pigweed plant response rating (pigweed; [5]) | Morningglory plant response rating (morningglory; [5]) | Blackgrass plant response rating (blackgrass; [4])
10: Cocklebur plant response rating (cocklebur; [4]) | Cocklebur plant response rating (cocklebur; [5]) | Foxtail, Giant plant response rating (giant foxtail; [4]) | Plant response rating (0 to 100 scale), Lambsquarters (lambsquarters; 125 g ai/ha) | Lambsquarters plant response rating (lambsquarters; [5]) | Surinam Grass plant response rating (Surinam grass; [4]) | Velvetleaf plant response rating (velvetleaf; [5])
40: Pigweed plant response rating (pigweed; [4]) | Lambsquarters plant response rating (lambsquarters; [4])
0: Plant response rating (0 to 100 scale), Cocklebur (cocklebur; 125 g ai/ha) | Barnyardgrass plant response rating (barnyardgrass [1]) | Plant response rating (0 to 100 scale), Morningglory (morningglory; 125 g ai/ha) | Plant response rating (0 to 100 scale), Foxtail, Giant (giant foxtail; 125 g ai/ha) | Foxtail, Giant plant response rating (giant foxtail; [5]) | Rice plant response rating (rice) | Plant response rating (0 to 100 scale), Crabgrass, Large (large crabgrass; 125 g ai/ha) | Crabgrass, Large plant response rating (large crabgrass; [5]) | Plant response rating (0 to 100 scale), Barnyardgrass (barnyardgrass [2]; 125 g ai/ha) | Barnyardgrass plant response rating (barnyardgrass [2]; Postemergence, 125 g ai/ha) | Barnyardgrass plant response rating (barnyardgrass [2]; Postemergence, 500 g ai/ha) | Blackgrass plant response rating (blackgrass; [5]) | Wheat plant response rating (wheat; [6]) | Wheat plant response rating (wheat; [4]) | Wheat plant response rating (wheat; [5]) | Plant response rating (0 to 100 scale), Surinam Grass (Surinam grass; 125 g ai/ha) | Surinam Grass plant response rating (Surinam grass; [5]) | Sedge, Umbrella plant response rating [3] | Plant response rating (0 to 100 scale), Corn (corn; 125 g ai/ha) | Corn plant response rating (corn; [4]) | Corn plant response rating (corn; [5]) | Ducksalad plant response rating (ducksalad) | Oat, Wild plant response rating (wild oat; [4]) | Oat, Wild plant response rating (wild oat; [5]) | Plant response rating (0 to 100 scale), Velvetleaf (velvetleaf; 125 g ai/ha)
30: Plant response rating (0 to 100 scale), Pigweed (pigweed; 125 g ai/ha) | Morningglory plant response rating (morningglory; [4]) | Crabgrass, Large plant response rating (large crabgrass; [4]) | Velvetleaf plant response rating (velvetleaf; [4])

Cc1nn(C(C)C)nc1C(=O)Nc1cc(C(=O)N(C)C)ccc1F [Compound 400]
20: Pigweed plant response rating (pigweed; [4]) | Ducksalad plant response rating (ducksalad)
80: Sedge, Umbrella plant response rating [3]
0: Plant response rating (0 to 100 scale), Pigweed (pigweed; 125 g ai/ha) | Pigweed plant response rating (pigweed; [7]) | Plant response rating (0 to 100 scale), Cocklebur (cocklebur; 125 g ai/ha) | Cocklebur plant response rating (cocklebur; [7]) | Cocklebur plant response rating (cocklebur; [4]) | Barnyardgrass plant response rating (barnyardgrass [1]) | Plant response rating (0 to 100 scale), Morningglory (morningglory; 125 g ai/ha) | Morningglory plant response rating (morningglory; [7]) | Morningglory plant response rating (morningglory; [4]) | Plant response rating (0 to 100 scale), Foxtail, Giant (giant foxtail; 125 g ai/ha) | Foxtail, Giant plant response rating (giant foxtail; [7]) | Foxtail, Giant plant response rating (giant foxtail; [4]) | Rice plant response rating (rice) | Plant response rating (0 to 100 scale), Crabgrass, Large (large crabgrass; 125 g ai/ha) | Crabgrass, Large plant response rating (large crabgrass; [7]) | Crabgrass, Large plant response rating (large crabgrass; [4]) | Plant response rating (0 to 100 scale), Barnyardgrass (barnyardgrass [2]; 125 g ai/ha) | Barnyardgrass plant response rating (barnyardgrass [2]; 125 g ai/ha, visual rating, postemergence) | Barnyardgrass plant response rating (barnyardgrass [2]; Postemergence, 500 g ai/ha) | Blackgrass plant response rating (blackgrass; [7]) | Blackgrass plant response rating (blackgrass; [4]) | Wheat plant response rating (wheat; [7]) | Wheat plant response rating (wheat; [6]) | Wheat plant response rating (wheat; [4]) | Plant response rating (0 to 100 scale), Lambsquarters (lambsquarters; 125 g ai/ha) | Lambsquarters plant response rating (lambsquarters; [7]) | Plant response rating (0 to 100 scale), Surinam Grass (Surinam grass; 125 g ai/ha) | Surinam Grass plant response rating (Surinam grass; [7]) | Surinam Grass plant response rating (Surinam grass; [4]) | Plant response rating (0 to 100 scale), Corn (corn; 125 g ai/ha) | Corn plant response rating (corn; [7]) | Corn plant response rating (corn; [4]) | Oat, Wild plant response rating (wild oat; [7]) | Oat, Wild plant response rating (wild oat; [4]) | Plant response rating (0 to 100 scale), Velvetleaf (velvetleaf; 125 g ai/ha) | Velvetleaf plant response rating (velvetleaf; [7])
30: Velvetleaf plant response rating (velvetleaf; [4])
10: Lambsquarters plant response rating (lambsquarters; [4])
